The values below come from US12552757B2, “NRF2-activating compound” (SENJU PHARMACEUTICAL CO., LTD., priority 2019, dated 2026).

Each structure is given as a SMILES string.

Data set [1] deals with T1, binding between NRF2 and KEAP1 (Homo sapiens, UniProt Q14145).
T1 construct: expressed in transfected cells; host or cells: HCE-T cells; each protein was expressed separately, and the two cell lysates were mixed in the well
Description: Measurement 1 of Nrf2 activating action (binding assay): BRET assay of inhibition of the binding between NRF2 and KEAP1. Particulars: 50% binding inhibitory concentration, NanoLuc-NRF2 / KEAP1-HaloTag cell lysates. Here is the method: Compounds 1 to 53 produced in the Examples were used as test substances.
The inhibitory activity of each compound on the binding between NRF2 and KEAP1 was measured by bioluminescence resonance energy transfer (BRET) assay. A plasmid having human NRF2 (Original Clone ID: ha01449s1) sequence fused with NanoLuc (19 kDa, Promega) at the N-terminal was transduced into HCE-T cells using FuGENE HD (Promega). 48 hours after transduction, the cell lysate was collected and used as an NRF2-expressing cell lysate. A plasmid having human KEAP1 (Original Clone ID: cs00328) sequence fused with HaloTag (33 kDa, Promega) at the C-terminal was transduced into HCE-T cells using FuGENE HD (Promega). After 24 hours, HaloTag Nano BRET 618 Ligand (Promega) was added to the medium. The cell lysate cultured for 24 hours after the addition was used as a KEAP1-expressing cell lysate.
The NRF2-expressing cell lysate and the KEAP1-expressing cell lysate were adjusted so that the luminescence and fluorescence intensities per well were constant. Tables 1 and 2 show the formulation of each reaction solution.
Each test substance at a concentration 100 times higher than the test concentration was dissolved in dimethylsulfoxide for adjustment. 49 μL of KEAP1 solution was added to a 96-well polystyrene microplate (FALCON) to which 1 μL of each test substance solution was added, followed by incubation for 15 minutes. Then, 50 μL of NRF2 solution was added to the above solution, followed by incubation for 1 hour. To measure the binding between NRF2 and KEAP1, NanoBRET Nano-Glo Substrate (Promega) diluted with Opti-Mem (Thermo Fisher Scientific) was added, followed by shaking for 30 seconds. Then, luminescence and fluorescence were measured using the GloMax Discover System (Promega). A 495-nm short pass filter and a 600-nm long pass filter were respectively used to measure donor and acceptor emission values. A value obtained by dividing the acceptor emission value by the donor emission value was regarded as BRET value. A BRET value when the compound was not added, and a BRET value when the KEAP1 solution was not added were respectively used as binding rates of 100% and 0%, and the binding rate when the compound was added was calculated. Further, using this binding rate, the 50% binding inhibitory activity concentration (IC50) was calculated from the following formula: IC50(M)=10^(LOG(A/B)×(50−C)/(D−C)+LOG(B)) • A: higher concentration out of 2 close concentrations across the inhibition rate of 50% • B: lower concentration out of 2 close concentrations across the inhibition rate of 50% • C: inhibition rate at B • D: inhibition rate at A

Data set [2] in a line: Measurement of metabolic stability in human liver microsomes. It is filed as in vitro ADME. As to conditions: residual ratio of test compound after 30 minutes at 37° C. with human liver microsome, LC/MS/MS. As for the experimental part:
1 mmol/L DMSO solutions of the compounds produced in the Examples were prepared. Each of the 1 mmol/L DMSO solutions was diluted with acetonitrile to 10 μmol/L, and then diluted with a 6.5 mmol/L Q-NADPH solution to 200 nmol/L. 50 μL of each solution was added to the reaction group and the non-reaction group. 50 μL of a 0.2 mg protein/mL human liver microsome (Mixed Gender, Pool of 50 livers; XenoTech, LLC) solution was added to the reaction group, followed by incubation at 37° C. for 30 minutes with shaking. After 400 μL of methanol was added to the non-reaction group, 50 μL of a 0.2 mg protein/mL human liver microsome solution was added to adjust the formulation. After incubation in the reaction group, 400 μL of methanol was added to stop the reaction. The samples of the reaction group and non-reaction group were allowed to stand at −20° C. for about 30 minutes, followed by centrifugation at 4° C. at 3000 rpm for about 10 minutes. The supernatant was analyzed using LC/MS/MS, and the residual ratio of the test compound was calculated from the peak area value of the test compound using the following formula. The measurement was carried out using the following devices: HPLC system: LC-20A-Series High Performance Liquid Chromatograph (Shimadzu Corporation) and mass spectrometer: API 4000 (AB Sciex Pte. Ltd.), or using equivalent devices. Residual ratio (%)=(peak area value of test compound in reaction group/peak area value of test compound in non-reaction group)×100 Results
Background: Liver microsomes are a subcellular fraction often used to study metabolism.

T1 sequence (Q14145 whole entry): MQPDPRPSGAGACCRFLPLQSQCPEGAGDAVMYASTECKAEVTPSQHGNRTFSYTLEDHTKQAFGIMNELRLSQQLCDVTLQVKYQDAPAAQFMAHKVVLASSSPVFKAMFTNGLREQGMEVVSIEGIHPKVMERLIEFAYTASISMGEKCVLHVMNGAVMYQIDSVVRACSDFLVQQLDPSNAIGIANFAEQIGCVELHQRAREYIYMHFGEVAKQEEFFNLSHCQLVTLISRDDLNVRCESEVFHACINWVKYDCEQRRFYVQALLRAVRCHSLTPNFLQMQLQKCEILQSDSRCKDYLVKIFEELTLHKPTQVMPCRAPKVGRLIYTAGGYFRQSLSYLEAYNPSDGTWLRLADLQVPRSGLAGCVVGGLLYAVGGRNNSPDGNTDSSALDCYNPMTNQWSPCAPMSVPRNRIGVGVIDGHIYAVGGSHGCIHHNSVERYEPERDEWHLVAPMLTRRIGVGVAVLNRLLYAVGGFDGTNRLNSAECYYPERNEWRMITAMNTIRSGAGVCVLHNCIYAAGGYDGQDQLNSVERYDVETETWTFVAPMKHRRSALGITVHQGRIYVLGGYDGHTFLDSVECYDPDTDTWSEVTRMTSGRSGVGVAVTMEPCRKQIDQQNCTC

As to `CC[C@@H]1CN(Cc2cc(C(CC(=O)O)c3cncs3)ccc2C)S(=O)(=O)c2ccccc2O1` (stereo partly drawn) [Compound 39, 3-(3-{[(R)-4-ethyl-1,1-dioxide-3,4-dihydro-2H-benzo[b][1,4,5]oxathiazepin-2-yl]methyl}-4-methylphenyl)-3-(thiazol-5-yl)propanoic acid], the IC50 in data set [1] turned out to be 3.8 nM. The “Metabolic stability*” value in data set [2] is on record as 89%.

In data set [1], `CC[C@@H]1CN(Cc2cc(C(CC(=O)O)c3ccc(C(=O)NC)o3)ccc2C)S(=O)(=O)c2ccccc2O1` (stereo partly drawn) [Compound 26, 3-(3-{[(R)-4-ethyl-1,1-dioxide-3,4-dihydro-2H-benzo[b][1,4,5]oxathiazepin-2-yl]methyl}-4-methylphenyl)-3-[5-(methylcarbamoyl)furan-2-yl]propanoic acid] displayed an IC50 of 17 nM. In data set [2], the “Metabolic stability*” value came out at 93%.

As for `CC[C@@H]1CN(Cc2cc(C(CC(=O)O)c3ccc(C(=O)NCCOC)o3)ccc2C)S(=O)(=O)c2ccccc2O1` (stereo partly drawn) [Compound 30, 3-(3-{[(R)-4-ethyl-1,1-dioxide-3,4-dihydro-2H-benzo[b][1,4,5]oxathiazepin-2-yl]methyl}-4-methylphenyl)-3-{5-[(2-methoxyethyl)carbamoyl]furan-2-yl}propanoic acid], in data set [1], the IC50 is 14 nM. Also, in data set [2], the “Metabolic stability*” value was 81%.

In turn, `CC[C@@H]1CN(Cc2cc(C(CC(=O)O)c3ccc(CNC(C)C)o3)ccc2C)S(=O)(=O)c2ccccc2O1` (stereo partly drawn) [Compound 32, 3-(3-{[(R)-4-ethyl-1,1-dioxide-3,4-dihydro-2H-benzo[b][1,4,5]oxathiazepin-2-yl]methyl}-4-methylphenyl)-3-(5-[(isopropylamino)methyl]furan-2-yl)propanoic acid] showed an IC50 in data set [1] of 205 nM. Besides, the “Metabolic stability*” value in data set [2] is listed as 90%.

Regarding `CC[C@@H]1CN(Cc2cc(C(CC(=O)O)c3ccc(S(N)(=O)=O)s3)ccc2C)S(=O)(=O)c2ccccc2O1` (stereo partly drawn) [Compound 18, 3-(3-{[(R)-4-ethyl-1,1-dioxide-3,4-dihydro-2H-benzo[b][1,4,5]oxathiazepin-2-yl]methyl}-4-methylphenyl)-3-(5-sulfamoylthiophen-2-yl)propanoic acid], the IC50 in data set [1] turned out to be 35 nM. Further, the “Metabolic stability*” value in data set [2] is given as 40%.

Take `CC[C@@H]1CN(Cc2cc(C(CC(=O)O)c3nc(C)c(C(C)=O)s3)ccc2C)S(=O)(=O)c2ccccc2O1` (stereo partly drawn) [Compound 41, 3-(5-acetyl-4-methylthiazol-2-yl)-3-(3-[{(R)-4-ethyl-1,1-dioxide-3,4-dihydro-2H-benzo[b][1,4,5]oxathiazepin-2-yl]methyl}-4-methylphenyl) propanoic acid]: the IC50 in data set [1] turned out to be 3.3 nM. The “Metabolic stability*” value in data set [2] came to 65%.

Take `CC[C@@H]1CN(Cc2cc(C(CC(=O)O)c3ncc(C(C)=O)s3)ccc2C)S(=O)(=O)c2ccccc2O1` (stereo partly drawn) [Compound 40, 3-(5-acetylthiazol-2-yl)-3-(3-{[(R)-4-ethyl-1,1-dioxide-3,4-dihydro-2H-benzo[b][1,4,5]oxathiazepin-2-yl]methyl}-4-methylphenyl)propanoic acid]: the IC50 in data set [1] came to 2.6 nM. Moreover, in data set [2], the “Metabolic stability*” value is recorded as 69%.

Compound `CC[C@@H]1CN(Cc2cc(C(CC(=O)O)c3ccc(C(C)=O)n3C)ccc2C)S(=O)(=O)c2ccccc2O1` (stereo partly drawn) [Compound 33, 3-(5-acetyl-1-methyl-1H-pyrrol-2-yl)-3-(3-{[(R)-4-ethyl-1,1-dioxide-3,4-dihydro-2H-benzo[b][1,4,5]oxathiazepin-2-yl]methyl}-4-methylphenyl)propanoic acid] showed an IC50 in data set [1] of 0.3 nM. The “Metabolic stability*” value in data set [2] is given as 62%.

For `CC[C@@H]1CN(Cc2cc(C(c3ccc(C(C)=O)o3)C(C)C(=O)O)ccc2C)S(=O)(=O)c2ccccc2O1` (stereo partly drawn) [Compound 24, 3-(5-acetylfuran-2-yl)-3-(3-{[(R)-4-ethyl-1,1-dioxide-3,4-dihydro-2H-benzo[b][1,4,5]oxathiazepin-2-yl]methyl}-4-methylphenyl)-2-methylpropanoic acid], the IC50 in data set [1] came to 0.83 nM. The “Metabolic stability*” value in data set [2] amounted to 72%.

For the compound `CC[C@@H]1CN(Cc2cc(C(CC(=O)O)c3cc(C#N)n(C)c3)ccc2C)S(=O)(=O)c2ccccc2O1` (stereo partly drawn) [Compound 36, 3-(5-cyano-1-methyl-1H-pyrrol-3-yl)-3-(3-{[(R)-4-ethyl-1,1-dioxide-3,4-dihydro-2H-benzo[b][1,4,5]oxathiazepin-2-yl]methyl}-4-methylphenyl)propanoic acid], the IC50 in data set [1] stood at 2.5 nM. Moreover, the “Metabolic stability*” value in data set [2] is given as 29%.

Regarding `CC[C@@H]1CN(Cc2cc(C(CC(=O)O)c3ccc(C(=O)N(C)C)o3)ccc2C)S(=O)(=O)c2ccccc2O1` (stereo partly drawn) [Compound 27, 3-[5-(dimethylcarbamoyl)furan-2-yl]-3-(3-{[(R)-4-ethyl-1,1-dioxide-3,4-dihydro-2H-benzo[b][1,4,5]oxathiazepin-2-yl]methyl}-4-methylphenyl)propanoic acid], the IC50 in data set [1] was determined as 20 nM. In addition, the “Metabolic stability*” value in data set [2] amounted to 85%.

Turning to `CC[C@@H]1CN(Cc2cc(C(CC(=O)O)c3c(C)c(C(C)=O)c(C)n3C)ccc2C)S(=O)(=O)c2ccccc2O1` (stereo partly drawn) [Compound 35, 3-(4-acetyl-1,3,5-trimethyl-1H-pyrrol-2-yl)-3-(3-{[(R)-4-ethyl-1,1-dioxide-3,4-dihydro-2H-benzo[b][1,4,5]oxathiazepin-2-yl]methyl}-4-methylphenyl) propanoic acid], in data set [1], the IC50 is 3.9 nM. Further, in data set [2], the “Metabolic stability*” value stood at 39%.

`CC[C@@H]1CN(Cc2cc(C(CC(=O)O)c3cc(C)c(C(=O)NC)o3)ccc2C)S(=O)(=O)c2ccccc2O1` (stereo partly drawn) [Compound 31, 3-(3-{[(R)-4-ethyl-1,1-dioxide-3,4-dihydro-2H-benzo[b][1,4,5]oxathiazepin-2-yl]methyl}-4-methylphenyl)-3-[4-methyl-5-(methylcarbamoyl)furan-2-yl]propanoic acid]: the IC50 in data set [1] came out at 99 nM. The “Metabolic stability*” value in data set [2] was 77%.

Compound `CC[C@@H]1CN(Cc2cc(C(CC(=O)O)c3ccc(C(=O)NC(C)C)o3)ccc2C)S(=O)(=O)c2ccccc2O1` (stereo partly drawn) [Compound 29, 3-(3-{[(R)-4-ethyl-1,1-dioxide-3,4-dihydro-2H-benzo[b][1,4,5]oxathiazepin-2-yl]methyl}-4-methylphenyl)-3-[5-(isopropylcarbamoyl)furan-2-yl]propanoic acid] came in with an IC50 in data set [1] of 17 nM. For the same compound, the “Metabolic stability*” value in data set [2] was found to be 83%.

For the compound `CC[C@@H]1CN(Cc2cc(C(CC(=O)O)c3ccc(C(C)=O)o3)ccc2C)S(=O)(=O)c2ccccc2O1` (stereo partly drawn) [Compound 25, 3-(5-acetylfuran-2-yl)-3-(3-{[(R)-4-ethyl-1,1-dioxide-3,4-dihydro-2H-benzo[b][1,4,5]oxathiazepin-2-yl]methyl}-4-methylphenyl)propanoic acid], the IC50 in data set [1] was 3.8 nM. In addition, in data set [2], the “Metabolic stability*” value turned out to be 72%.

The compound `CC[C@@H]1CN(Cc2cc(C(CC(=O)O)c3cc4c(s3)C(=O)NC4)ccc2C)S(=O)(=O)c2ccccc2O1` (stereo partly drawn) [Compound 38, 3-(3-{[(R)-4-ethyl-1,1-dioxide-3,4-dihydro-2H-benzo[b][1,4,5]oxathiazepin-2-yl]methyl}-4-methylphenyl)-3-(6-oxo-5,6-dihydro-4H-thieno[2,3-c]pyrrol-2-yl) propanoic acid] yielded an IC50 in data set [1] of 0.22 nM. For the same compound, the “Metabolic stability*” value in data set [2] amounted to 61%.

A word on the IC50: it is the point on the concentration scale where inhibition reaches its midpoint. A low value points to greater potency in that assay.
